In EP0652769B1, “VACCINES AGAINST METAZOAN PARASITES” (MALLINCKRODT VETERINARY, INC., priority 1992, dated 1994):
Where “and” joins values, the source holds several entries; their conditions need not be identical. Equal entries are not always repeated. Square brackets hold non-standard residues; d marks the D form. Peptide text beside a SMILES is read from it. * marks the point of attachment. Sta = CC(C)C[C@H](N)[C@@H](O)CC(=O)O; Isovaleryl = CC(C)CC(=O)*

Columns and labels:
H-gal-GP [1] = experiment: Azocasein proteolysis by H-gal-GP at pH 7 with a panel of proteinase inhibitors (neutral endopeptidase-like activity); type: biochemical, H.contortus; settings: inhibitor 1mM, overnight at 37°C
Experimental: Proteinase activity was determined using azocasein as substrate in a microassay system. H-gal-GP (approximately 5ug in 20µl) was preincubated for 3Omin at 37°C with 2OOµl sterile 0.1M phosphate buffer, pH 7.0 containing no inhibitor (control), or inhibitor to a final concentration of 1mM. Inhibitors used were prepared as 100mM stock solutions in water except for 4-hydroxymercuribenzoate (4HMB) and pepstatin which were dissolved in methanol. Inhibitors tested were dithiothreitol (DTT); L-cysteine; reduced glutathione; 4HMB; N-ethylmaleimide; EDTA; 1,10 phenanthroline and pepstatin and were all purchased from Sigma. After preincubation 20µl azocasein (5mg/ml in sterile distilled water; Sigma) was added and the reaction mixtures incubated overnight at 37°C. Parallel blanks containing sterile water instead of H-gal-GP were included for each inhibitor tested and assays were performed in duplicate. The reactions were stopped by addition of an equal volume of 1M perchloric acid (BDH chemicals) and retained on ice for 15min to precipitate undigested protein which was subsequently pelleted by brief centrifugation at 11000g using a microfuge. The 0D₄₀₅ of the supernatant was determined using a "Monarch" microcentrifugal analyser (Instrumentation Laboratory, Warrington, UK). After subtraction of the appropriate reagent blank the degree of inhibition was expressed as the percent activity remaining compared to the control reaction.

H-gal-GP [2] = experiment: Inhibitor sensitivity of protease activity; type: biochemical, H. contortus; settings: peanut lectin purified H-gal-GP; means of 4 separate observations
Experimental: The optimum pH for this activity was determined over the pH range 4 to 9 using overlapping 0.1M acetate, phosphate or Tris buffers (Fig. 8). Optimal activity was found between pH 4.5 and 6.5. ii) Inhibitor sensitivity The inhibitor sensitivity of the proteinase activity was tested with 4 separate preparations of peanut lectin purified H-gal-GP. […]

Oc-gal-GP = experiment: Inhibitor sensitivity of protease activity; type: biochemical, O.circumcincta; settings: means of 2 observations
Oo-gal-GP = experiment: Inhibitor sensitivity of protease activity; type: biochemical, O.ostertagi; settings: means of 2 observations
[3] = tested on: extracts of adult T.vitrinus; experiment: Proteolytic activity of worm extracts in the presence of pepstatin; type: biochemical
Source text: Proteolytic activity in extracts of adult T.vitrinus was reduced by 40% in the presence of pepstatin. […] These observations indicate that T.vitrinus also contains aspartyl proteinase activity similar to Haemonchus and Ostertagia spp.

[4] = molecular target: Haemonchus galactose-containing glycoprotein complex (H-gal-GP) (Haemonchus contortus); experiment: cell-based or functional assay
[5] = molecular target: Ostertagia circumcincta galactose containing glycoprotein complex (Oc-gal-GP) (Ostertagia circumcincta); experiment: cell-based or functional assay
[6] = molecular target: Ostertagia ostertagi galactose-containing glycoprotein complex (Oo-gal-GP) (Ostertagia ostertagi); experiment: cell-based or functional assay
[7] = first analysis, 0.1M phosphate buffer
[8] = second analysis, same batch of H-gal-GP

| Compound | % activity remaining (H-gal-GP [1]; [7]) [%] | % activity remaining (H-gal-GP [1]; [8]) [%] | percent activity remaining in the presence of inhibitor (H-gal-GP [2]) [%] | percent activity remaining in the presence of inhibitor (Oc-gal-GP) [%] | percent activity remaining in the presence of inhibitor (Oo-gal-GP) [%] | further results |
| --- | --- | --- | --- | --- | --- | --- |
| O[C@H](CS)[C@H](O)CS (racemic) [Dithiothreitol, dithiothreitol] | 48 | 44 |  |  |  |  |
| c1cnc2c(c1)ccc1cccnc12 [1, 10 Phenanthroline, 1,10 phenanthroline] | 26 | 23 | 97 | 94 | 99 |  |
| O=C([O-])c1cc[c]([Hg][OH])cc1 [4-hydroxymercuribenzoate] | 88 | 91 |  |  |  |  |
| N[C@@H](CS)C(=O)O [Cysteine, L-cysteine] |  | 0 |  |  |  |  |
| CC(C)C[C@H](NC(=O)[C@H]1O[C@@H]1C(=O)O)C(=O)NCCCCN=C(N)N [E64] |  |  | 87.8 | 101 | 101 |  |
| O=C(O)CN(CCN(CC(=O)O)CC(=O)O)CC(=O)O [EDTA] | 25 | 10 | 97.8 |  |  |  |
| N[C@@H](CCC(=O)N[C@@H](CS)C(=O)NCC(=O)O)C(=O)O [Glutathione, reduced glutathione] | 87 | 85 |  |  |  |  |
| CCN1C(=O)C=CC1=O [N-ethylmaleimide] | 74 | 77 |  |  |  |  |
| O=S(=O)(F)Cc1ccccc1 [PMSF] |  |  | 100 | 104 | 84 |  |
| CC(C)CC(=O)N[C@H](C(=O)N[C@H](C(=O)N[C@@H](CC(C)C)[C@@H](O)CC(=O)N[C@@H](C)C(=O)N[C@@H](CC(C)C)[C@@H](O)CC(=O)O)C(C)C)C(C)C [Pepstatin, pepstatin] (Isovaleryl-VV[Sta]A[Sta]-OH) | 75 | 85 | 8.5 | 23 | 0 | Proteolytic activity reduced [3]: 40% |
| Serum of control lamb (injected with adjuvant only) (antibody) |  |  |  |  |  | % Inhibition of Proteolysis (Assay 1) [4]: 0%; % Inhibition of Proteolysis (Assay 2) [4]: 2% |
| pepstatin (peptide) |  |  |  |  |  | % activity remaining (azocasein proteolysis at pH7) [4]: 75% and 85%; percent activity remaining in the presence of inhibitor [4]: 8.5%; percent activity remaining in the presence of inhibitor [5]: 23%; percent activity remaining in the presence of inhibitor [6]: 0% |
